Peptide text beside a SMILES is read from it. * marks the point of attachment. Cbz = O=C(OCc1ccccc1)*; CH2F = FC*

Experimental findings from US7332290B2, “Dectection of AMACR cancer markers in urine” (The Regents of the University of Michigan, priority 2001, dated 2008) are described below.

Holding throughout (type): cell-based
One test deals with LNCaP cells. As to the kind of experiment: Androgen/anti-androgen treatment of LNCaP cells, Western blot of AMACR and PSA. The settings on record: LNCaP cells exposed to synthetic androgen, 1 nM, 24 and 48 h. How it is done:
Prostate cell lines (RWPE-1, LNCaP, PC3 and DU145) were obtained from the American Tissue Culture Collection. Cells were maintained in RPMI-1640 with 8% decomplemented fetal bovine serum, 0.1% glutamine and 0.1% penicillin and streptomycin (BioWhittaker, Walkersville, Md.). Cells were grown to 75% confluence and then treated for 24 and 48 with the antiandrogen bicalutamide (CASODEX, Zeneca Pharmaceuticals, Plankstadt, Germany) at a final concentration of 20 μM or with methyltrienolone (synthetic androgen (R1881); NEN, Life Science Products, Boston, Mass.) at a final concentration of 1 nM. Cells were harvested and lysed in NP-40 lysis buffer containing 50 mmol/L Tris-HCl, pH 7.4, 1% Nonidet P-40 (Sigma, St. Louis, Mo.) and complete proteinase inhibitor cocktail (Roche, Ind., USA). 15 μg of protein extracts were mixed with SDS sample buffer and electrophoresed onto a 10% SDS-polyacrylamide gel under reducing conditions. After transferring, the membranes (Amersham Pharmacia Biotech, Piscataway, N.J.) were incubated for 1 hour in blocking buffer (Tris-buffered saline with 0.1% Tween and 5% nonfat dry milk). The AMACR antibody was applied at 1:10.000 diluted blocking buffer overnight at 4° C. […]

The subject of another test is HDAC activity. The experiment in a line: DNA microarray of EZH2-transfected cells, EZH2-mediated gene silencing. From the text:
Other molecules have been similarly tested with this approach. Cells were transfected with different EZH2 constructs and transfection efficiency was monitored by beta-galactosidase assay and was approximately 30-50%. EZH2.SET mutant expressing samples were compared to EZH2 expressing samples using the SAM analysis package (Tusher et al., PNAS 98:5116 [2001]). Data was pre-processed by multiplication by a normalization factor to adjust the aggregate ratio of medians to one, log base 2 transformed and median centered each array, individually. This pre-processed data was divided into 2 groups for comparison using a two-class, unpaired t-test. […] These 161 genes were supplemented by the values for EZH2 and then analyzed using Cluster implementing average linkage hierarchical clustering of genes. […]
PcG proteins have been proposed to mediate their functions by repression of target genes (Laible et al., supra; Jacobs et al., Semin Cell Dev. Biol. 10:227 [1999]). To begin to test this hypothesis, RWPE prostate cells were transiently transfected with wild-type EZH2 and global gene expression alterations were monitored using DNA microarrays. […]

The next test deals with prostate cells. The experiment in a line: WST-1 cell proliferation assay after siRNA transfection. The settings on record: WST-1, caspase inhibitor added to EZH2 siRNA treated cells. As for the experimental part:
21-nucleotide sense and antisense RNA oligonucleotides were chemically synthesized (Dharmacon Research Inc.) and annealed to form duplexes. The siRNA employed in the study were targeted to the region corresponding from 85 to 106 of the reported human EZH2 (NM004456). Control siRNA duplexes targeted luciferase, lamin and AMACR (NM014324). The human transformed prostate cell line RWPE (Webber et al., Carcinogenesis 18:1225 [1997]) and PC3 were plated at 2×10^5 cells per well in a 12 well plate (for immunoblot analysis, cell counts, and fluorescence activated cell sorting (FACS) analysis) and 1.5×10^4 cell per well in a 96 well plate (for WST-1 proliferation assays). Twelve hours after plating, the cells were transfected with 60 picomoles of siRNA duplex, sense or antisense oligonucleotides (targeting EZH2) using oligofectamine (Invitrogen). […] Cell viability was assessed 60 hours after the initial transfection.
Cell proliferation was determined with the colorimetric assay of cell viability, based on the cleavage of tetrazolium salt WST-1 by mitochondrial dehydrogenases as per manufacturers instructions (Roche, Inc.). The absorbance of the formazan dye formed, which directly correlates with the number of metabolically active cells in the culture, was measured at 450 nm (Bio-Tek instruments), an hour after the addition of the reagent. […]
Background: Tetrazolium assays rely on reduction of a dye to a coloured formazan, in cell work by metabolically active cells.

Consider `C[C@]1(O)CC[C@H]2[C@@H]3CCC4=CC(=O)CCC4=C3C=C[C@@]21C` [R1881, methyltrienolone], for which the AMACR expression entry in the test on LNCaP cells is recorded as “no increase in AMACR expression”. In the case of `CC(/C=C/C(=O)NO)=C\[C@@H](C)C(=O)c1ccc(N(C)C)cc1` [trichostatin A], the “effect on EZH2-mediated gene silencing” value in the test on HDAC activity is recorded as “completely abrogated the effects of EZH2”. On to `COC(=O)C[C@H](NC(=O)[C@H](C)NC(=O)[C@@H](NC(=O)OCc1ccccc1)C(C)C)C(=O)CF` [z-VAD-fmk] (Cbz-Val-Ala-Asp(OMe)-CH2F), for which the “attenuation of EZH2 siRNA induced inhibition of cell proliferation” value with prostate cells is “failed to attenuate”.
